Source: patent US10611795B2, “Methods for viral inactivation using eco-friendly detergents” (priority 2013, dated 2020)
Values joined by “and” are separate entries in the source; they are usually repeats but may differ in a detail not shown here. Equal entries are not always repeated. Where two headings read alike, the source gives them in different places.

What was measured:
[1] = cited from earlier work; for acute EC50: 30 min Photobacterium phosphoreum (marine light-emitting bacteria); for Biodegradability classification in Closed Bottle and Modified OECD Screening Tests: both Closed Bottle and Modified OECD Screening Tests; for EC50: 3 weeks, Selenastrum capricornutum
[2] = Turbidity after detergent exposure; type: physicochemical; conditions: MAb3 HCCF and MAb3 MSS pool, three hours
[3] = tested on: Xenotropic Murine Leukemia Virus (XMuLV); type: cell-based; conditions: for xMuLV inactivation LRV, Time 2 / xMuLV inactivation LRV, Time 3 / xMuLV inactivation LRV, Time 0.5 / xMuLV inactivation LRV, Time 1 / xMuLV inactivation LRV, Time 6 / xMuLV inactivation, in words: 20° C.; for xMuLV inactivation LRV, Time 2: 2 h; for xMuLV inactivation LRV, Time 3: 3 h; for xMuLV inactivation LRV, Time 0.5: 0.5 h; for xMuLV inactivation LRV, Time 1: 1 h; for xMuLV inactivation LRV, Time 6: 6 h; for xMuLV inactivation, in words: detergent or solvent alone; for XMuLV LRV: rProtein1 CaptoAdhere Pool, Room Temperature
[4] = Detergent mixing turbidity analysis (average absorbance 340-360 nm); type: physicochemical; conditions: MAb1 HCCF
[5] = EHS evaluation: basic physical and toxicological characteristics from manufacturer and government literature; conditions: not solid due to the algal and fish data
[6] = tested on: bovine viral diarrhea virus (BVDV); test: BVDV inactivation, plaque assay with BT indicator cells (LRV); type: cell-based; conditions: rProtein 2 HCCF, 0.3% Detergent, 20° C., Run 1, Run 2
[7] = MAb1 HCCF, listed as 0.03M caprylate pH 4.5
[8] = MAb1 HCCF, listed as 0.03M caprylate pH 7.6
[9] = MAb1 HCCF, listed as 0.1M caprylate pH 5.0
[10] = MAb1 HCCF, listed as 0.1M caprylate pH 7.6
[11] = various (12 species) marine microalgae, 10-12 d
[12] = ~2 d, Sphaerechinus granularis, sea urchin embryo-larval test, marine
[13] = MAb1 HCCF, listed as 1% Polysorbate 20
[14] = MAb1 HCCF, listed as 2% Polysorbate 20
[15] = MAb1 Protein A pool, listed as 1% Polysorbate 80
[16] = MAb1 Protein A pool, listed as 2% Polysorbate 80

Which “acute EC50” value [1] does the source give for `CCCCCCOC1OC(CO)C(O)C(O)C1O` (stereo not drawn) [Alkylglucosides C6] here?
Its value is “EC50: C6 = 490 mg/l; C8 =”.

What about the “Biodegradability classification in Closed Bottle and Modified OECD Screening Tests” value [1] of the same molecule?
Its value is “C10 and C12) are readily”.

With `CCCCCCCCOC1OC(CO)C(O)C(O)C1O` (stereo not drawn) [Alkylglucosides C8] as the molecule, how does the “acute EC50” value [1] read?
The value was 11.7 mg/L.

What about the “Biodegradability classification in Closed Bottle and Modified OECD Screening Tests” value [1] of the same molecule?
Its value is “C10 and C12) are readily”.

What does the source list for `CCCCCCCCCCOC1OC(CO)C(O)C(O)C1O` (stereo not drawn) [Alkylglucosides C10]?
acute EC50 [1]: 7.9 mg/L; Biodegradability classification in Closed Bottle and Modified OECD Screening Tests [1]: C10 and C12) are readily

For `CCCCCCCCCCCCOC1OC(CO)C(O)C(O)C1O` (stereo not drawn) [Alkylglucosides C12], which “acute EC50” value [1] is on record?
Its value is “C12 = 8.8 mg/l), 30 min”.

And the “Biodegradability classification in Closed Bottle and Modified OECD Screening Tests” value [1]?
Its value is “C10 and C12) are readily”.

Which “turbidity, in words” value [2] does the source give for `CCCCCCCC(=O)O` [caprylate, caprylic acid] here?
Its value is “Significant turbidity”.

What about the “xMuLV inactivation LRV, Time 2” value [3, 7] of the same molecule?
The value was no less than 5.0.

What about the “xMuLV inactivation LRV, Time 2” value [3, 8] of the same molecule?
The value was 0.21.

And the “xMuLV inactivation LRV, Time 2” value [3, 9]?
The value was no less than 5.1.

What about the “xMuLV inactivation LRV, Time 2” value [3, 10] of the same molecule?
Its value is no less than 6.0.

And the “xMuLV inactivation LRV, Time 3” value [3, 7]?
Its value is no less than 5.0.

And the “xMuLV inactivation LRV, Time 3” value [3, 8]?
Its value is 0.30.

And the “xMuLV inactivation LRV, Time 3” value [3, 9]?
Its value is no less than 5.1.

And the “xMuLV inactivation LRV, Time 3” value [3, 10]?
Its value is no less than 6.0.

And the “turbidity during mixing, after filtration and overnight incubation (FIGS. 2, 3), in words” value [4]?
Its value is “Turbidity increased with the addition and mixing”.

With `CCCCCCCCCCCC(=O)NCCC[N+](C)(C)CC(=O)[O-]` [lauramidopropyl betaine] as the molecule, how does the Biodegradability classification ([1]; as stated in the Biodegradability column, no single test named) read?
The Biodegradability classification was “readily biodegradable”.

Which “acute LC50” value ([1]; 1 d Artemia sp. (marine)) does the source give for Polysorbate 20 here?
The value was “acute LC50 1447 mg/l 1 d”.

What about the LC50 ([1]; 1 d Poecilia reticulata, freshwater) of the same molecule?
The LC50 was “LC50 350 mg/l 1 d Poecilia”.

What about the “Biodegradability according to Roche's inherent biodegradability test (OECD 302)” value [1] of the same molecule?
Its value is “Poor biodegradability”.

What about the EC50 ([1]; freshwater) of the same molecule?
The EC50 was “EC50 ≤100 mg/l 3 weeks”.

And the “acute NOEC” value ([1]; highest tested concentration, limit test, 48 h Daphnia magna, OECD202)?
Its value is “acute NOEC 10 mg/l”.

And the “chronic NOEC” value ([1]; highest tested concentration, limit test, 21 d Daphnia magna, OECD repro)?
Its value is “chronic NOEC 10 mg/l”.

What about the “chronic NOEC” value [1, 11] of the same molecule?
The value was “chronic NOEC 10 mg/l”.

And the “chronic NOEC” value [1, 12]?
The value was “chronic NOEC 20 mg/l ~2 d,”.

What about the “xMuLV inactivation LRV, Time 0.5” value [3, 13] of the same molecule?
Its value is 1.0.

What about the “xMuLV inactivation LRV, Time 0.5” value [3, 14] of the same molecule?
The value was 0.6.

And the “xMuLV inactivation LRV, Time 1” value [3, 13]?
Its value is 1.4.

And the “xMuLV inactivation LRV, Time 1” value [3, 14]?
Its value is 0.7.

And the “xMuLV inactivation LRV, Time 3” value [3, 13]?
Its value is 2.3.

What about the “xMuLV inactivation LRV, Time 3” value [3, 14] of the same molecule?
Its value is 2.2.

And the “xMuLV inactivation LRV, Time 6” value [3, 13]?
The value was 4.5.

And the “xMuLV inactivation LRV, Time 6” value [3, 14]?
Its value is 5.6.

And the “xMuLV inactivation, in words” value ([3]; MAb1 HCCF)?
Its value is “less effective”.

And the “preliminary acute-based freshwater PNEC” value [5]?
Its value is “freshwater PNEC 0.1 mg/l,”.

Which “?NOEC” value ([1]; 3 weeks Selenastrum capricornutum, printed with question marks) does the source give for Polysorbate 80 here?
The value was 100 mg/l? 3 weeks.

And the “chronic NOEC” value ([1]; 4 d Gloeocapsa (Cyanobacteria))?
The value was “chronic NOEC 100 mg/l 4 d”.

And the “chronic NOEC” value ([1]; 96 h Tetrahymena pyriformis)?
Its value is “chronic NOEC 250 mg/l 96 h”.

What about the “algal NOEC” value ([1]; Chlorella vulgaris 96 h, freshwater) of the same molecule?
The value was “algal NOEC 2 mg/l”.

And the “Biodegradability according to Roche's inherent biodegradability test (OECD 302)” value [1]?
Its value is “Poor biodegradability”.

What about the “algal EC10 (~NOEC)” value ([1]; Scenedesmus quadricauda 96 h, freshwater) of the same molecule?
Its value is “algal EC10 (~NOEC) 6.99 mg/l”.

What about the EC50 ([1]; freshwater) of the same molecule?
The EC50 was “EC50 ≥100 mg/l, ?NOEC”.

What about the “chronic NOEC” value [1, 11] of the same molecule?
The value was “chronic NOEC 10 mg/l”.

What about the “chronic NOEC” value [1, 12] of the same molecule?
The value was “chronic NOEC 20 mg/l ~2 d,”.

What about the “xMuLV inactivation LRV, Time 1” value ([3]; MAb1 HCCF) of the same molecule?
The value was 3.3.

And the “xMuLV inactivation LRV, Time 3” value ([3]; MAb1 HCCF)?
Its value is 5.7.

And the “xMuLV inactivation, in words” value ([3]; MAb1 HCCF)?
Its value is “less effective”.

And the “xMuLV inactivation LRV, Time 0.5” value [3, 15]?
Its value is 0.4.

And the “xMuLV inactivation LRV, Time 0.5” value [3, 16]?
Its value is 0.7.

And the “xMuLV inactivation LRV, Time 1” value [3, 15]?
Its value is 0.9.

What about the “xMuLV inactivation LRV, Time 1” value [3, 16] of the same molecule?
Its value is 0.7.

And the “xMuLV inactivation LRV, Time 2” value ([3]; MAb1 Protein A pool)?
The value was 1.2.

What about the “xMuLV inactivation LRV, Time 3” value [3, 15] of the same molecule?
The value was 1.1.

What about the “xMuLV inactivation LRV, Time 3” value [3, 16] of the same molecule?
Its value is 1.0.

What about the “XMuLV LRV” value ([3]; 5 min, Run 1, Run 2) of the same molecule?
The value was “.45”.

What about the “XMuLV LRV” value ([3]; 10 min, Run 1, Run 2) of the same molecule?
The value was “.57”.

And the “XMuLV LRV” value ([3]; 15 min)?
The value was “.82”.

And the “XMuLV LRV” value ([3]; 30 min)?
The value was 2.1.

And the “time to effective XMuLV inactivation” value ([3]; rProtein1 CaptoAdhere pool, room temperature)?
Its value is 1 h.

With Triton X-100 as the molecule, how does the “BVDV log reduction value” ([6]; 30 min) read?
Its value is 5.4 and 5.5.

What about the “BVDV log reduction value” ([6]; 60 min) of the same molecule?
Its value is >5.4 and >5.5.
